Laboratory results as given in article PMC8802628, “Selective activation of PFKL suppresses the phagocytic oxidative burst” (Cell, 2021).

What was measured:
human PFKM = target: T1, human PFKM (Homo sapiens, UniProt P08237); assay: Recombinant PFKM activity assay; format: biochemical; settings: for activation of PFKM: at concentrations up to 100 μM
T1 construct: made in house; host or cells: Sf9 insect cells (baculovirus)
T1 sequence (P08237 1-780): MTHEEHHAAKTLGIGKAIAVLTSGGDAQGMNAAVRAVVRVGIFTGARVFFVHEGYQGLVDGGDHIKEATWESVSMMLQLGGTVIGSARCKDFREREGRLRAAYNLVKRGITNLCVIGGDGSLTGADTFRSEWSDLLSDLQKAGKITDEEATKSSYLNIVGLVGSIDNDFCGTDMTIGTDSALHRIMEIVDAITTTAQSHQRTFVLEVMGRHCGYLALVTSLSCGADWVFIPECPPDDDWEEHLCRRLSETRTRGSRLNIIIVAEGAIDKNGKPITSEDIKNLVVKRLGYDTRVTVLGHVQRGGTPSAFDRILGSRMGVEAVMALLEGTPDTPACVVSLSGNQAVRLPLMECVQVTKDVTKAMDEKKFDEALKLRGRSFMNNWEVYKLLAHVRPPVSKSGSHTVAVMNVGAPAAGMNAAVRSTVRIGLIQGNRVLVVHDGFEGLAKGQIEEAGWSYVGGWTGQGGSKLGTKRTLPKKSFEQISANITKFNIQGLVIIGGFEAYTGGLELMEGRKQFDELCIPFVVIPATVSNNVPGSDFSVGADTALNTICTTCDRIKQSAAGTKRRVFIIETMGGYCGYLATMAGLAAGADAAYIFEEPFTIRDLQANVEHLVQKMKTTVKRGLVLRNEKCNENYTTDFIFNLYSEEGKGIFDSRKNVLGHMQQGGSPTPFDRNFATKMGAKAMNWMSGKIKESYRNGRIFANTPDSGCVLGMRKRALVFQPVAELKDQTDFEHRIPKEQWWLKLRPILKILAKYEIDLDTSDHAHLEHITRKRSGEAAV
Source text: (§1) Recombinant N-terminal His-tagged human PFKL (NP_002617), PFKM (NP_000280), and PFKP (NM_002627.4) were generated as described ([Webb et al., 2015], [2017]). Point mutants of PFK1 were generated using the QuikChange Lightning kit (Aligent).
His-tagged PFK1 was expressed and purified as described with slight modifications ([Webb et al., 2015], [2017]). Briefly, baculovirus was generated using the Bac-to-Bac Expression system (Invitrogen). PFK1 was expressed in 2-5 × 10^6 sf9 cells at a multiplicity of infection of two for 48 h. Cells were lysed in 20 mM HEPES, pH 7.5, 80 mM potassium phosphate, 1 mM 2-mercapentoethanol, 10% glycerol, 10 mM imidazole, and EDTA-free Protease Inhibitor Cocktail (Abcam) with a Dounce homogenizer. The soluble lysate was incubated with HisPur cobalt resin (ThermoFisher Scientific). The resin was washed with 5 bead volumes lysis buffer, 10 bead volumes lysis buffer containing 2 M NaCl, and 5 further bead volumes lysis buffer. PFK1 was eluted in lysis buffer containing 100 mM imidazole. Fractions containing protein were pooled, passed over a desalting column equilibrated in freezing buffer [20 mM HEPES pH 7.5, 1 mM DTT, 500 μM ammonium sulfate, 5% glycerol, 1 mM ATP, and 100 μM EDTA] and concentrated using an Amicon Ultracel-30K Centrifugal Filter Unit (MilliporeSigma). Protein was quantified using a Bradford Protein Assay kit (ThermoFisher Scientific), and aliquotes frozen in liquid nitrogen for storage at −80°C.
PFK1 activity was determined using the rate of FBP production via an auxiliary enzyme assay adapted to a 96-well format ([Brüser et al., 2012]; [Webb et al., 2015]). The auxiliary enzymes aldolase, triosephosphate isomerase, and glycerol phosphate dehydrogenase were purchased from MilliporeSigma as ammonium sulfate slurries and desalted using an Amicon Ultracel-10K Centrifugal Filter Unit. For assays containing FBP, the rate of ADP production was determined using the auxiliary enzymes pyruvate kinase (PK) and lactate dehydrogenase (LDH) (MilliporeSigma) in a buffer containing 250 μM phosphoenolpyruvic acid, […] NADH, 50 mM HEPES pH 7.5, 100 mM KCl, 1 mM DTT, and effector concentrations as described in the text. The temperature was equilibrated to 25°C for 5 min before initiating the reaction 10 mM MgCl2. Absorbance at 340 nm was measured using a Varioskan LUX Multimode microplate reader (ThermoFisher). Kinetic parameters were generated by nonlinear regression analysis using Prism (GraphPad Software) and are the mean of a minimum of three measurements from two independent preparations of protein. One unit of activity was defined as the amount of enzyme that catalyzed the formation of 1 μmol of fructose 1,6-bisphosphate per min at 25°C. […]

human PFKP = target: T2, human PFKP (Homo sapiens, UniProt Q01813); assay: Recombinant PFKP activity assay; format: biochemical; settings: at concentrations up to 100 μM
T2 construct: made in house; host or cells: Sf9 insect cells (baculovirus)
Source text: as §1
His-tagged PFK1 was expressed and purified as described with slight modifications ([Webb et al., 2015], [2017]). Briefly, baculovirus was generated using the Bac-to-Bac Expression system (Invitrogen). PFK1 was expressed in 2-5 × 10^6 sf9 cells at a multiplicity of infection of two for 48 h. […] Protein was quantified using a Bradford Protein Assay kit (ThermoFisher Scientific), and aliquotes frozen in liquid nitrogen for storage at −80°C.
PFK1 activity was determined using the rate of FBP production via an auxiliary enzyme assay adapted to a 96-well format ([Brüser et al., 2012]; [Webb et al., 2015]). […] For assays containing FBP, the rate of ADP production was determined using the auxiliary enzymes pyruvate kinase (PK) and lactate dehydrogenase (LDH) (MilliporeSigma) in a buffer containing 250 μM phosphoenolpyruvic acid, […] NADH, 50 mM HEPES pH 7.5, 100 mM KCl, 1 mM DTT, and effector concentrations as described in the text. […] Absorbance at 340 nm was measured using a Varioskan LUX Multimode microplate reader (ThermoFisher). […]

recombinant NE = target: T3, recombinant NE (Homo sapiens, UniProt P08246); assay: NE activity assay; format: biochemical
T3 construct: purchased Abcam ab91099
Description: NA-11 and LDC7559 were incubated at the indicated concentrations with 25 ng of recombinant NE for 20 min. NE activity was measured using a fluorescence NE activity assay kit (Abcam).

PFK1 = PFK1 activity in PMN lysates; format: cell-based, human; settings: for activation-induced reduction in PFK1 activity: neutrophils treated with PMA, LPS, or cholesterol crystals
Description: PFK1 activity assays from neutrophil lysates were modified from Abrantes et al., 2012. Briefly, neutrophils (10^7) were cultured with 0.5 μM NA-11 for 30 min, and then stimulated with 50 nM PMA, 5 μg/mL cholesterol crystals, 10 μg/mL LPS or 25 μM nigericin for 30 min. Cells were lysed in 10 mM PBS, 1% Triton X-100, and 1 x EDTA-free protease inhibitor cocktail on ice for 10 min. The soluble protein lysates were quantified by BCA assay (Pierce) and adjusted to 0.3125 mg/mL with lysis buffer. Lysate (80 μL) was mixed with 100 μL 2x enzyme cocktail solution (100 mM Tris-HCL pH7.4, 10 mM MgCl2, 0.5 mM ATP, 0.3 mM NADH, 1.35 units/mL Aldolase, 10 units/mL Triose phosphate isomerase, 4 units/mL glycerophosphate dehydrogenase, 20 mM ammonium sulfate) equilibrated to reach room temperature for 5 min. 20 μL of Fructose-6-phosphate (40 mM) was added and the reaction monitored for NADH decrease (absorbance at 340 nm) every 30 s for 30 min. Specific activity is in pmoles FBP per min per mg lysate.

[1] = PFKM wild type, pH 7.0, 250 μM ATP

T3 sequence (P08246 30-267): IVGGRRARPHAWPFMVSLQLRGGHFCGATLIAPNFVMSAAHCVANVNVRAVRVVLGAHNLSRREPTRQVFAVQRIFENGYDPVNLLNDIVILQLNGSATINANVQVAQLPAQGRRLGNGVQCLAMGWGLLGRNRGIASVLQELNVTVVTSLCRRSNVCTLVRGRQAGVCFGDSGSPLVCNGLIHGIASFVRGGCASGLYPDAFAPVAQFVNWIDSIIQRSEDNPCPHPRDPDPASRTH
T2 sequence (Q01813 whole entry): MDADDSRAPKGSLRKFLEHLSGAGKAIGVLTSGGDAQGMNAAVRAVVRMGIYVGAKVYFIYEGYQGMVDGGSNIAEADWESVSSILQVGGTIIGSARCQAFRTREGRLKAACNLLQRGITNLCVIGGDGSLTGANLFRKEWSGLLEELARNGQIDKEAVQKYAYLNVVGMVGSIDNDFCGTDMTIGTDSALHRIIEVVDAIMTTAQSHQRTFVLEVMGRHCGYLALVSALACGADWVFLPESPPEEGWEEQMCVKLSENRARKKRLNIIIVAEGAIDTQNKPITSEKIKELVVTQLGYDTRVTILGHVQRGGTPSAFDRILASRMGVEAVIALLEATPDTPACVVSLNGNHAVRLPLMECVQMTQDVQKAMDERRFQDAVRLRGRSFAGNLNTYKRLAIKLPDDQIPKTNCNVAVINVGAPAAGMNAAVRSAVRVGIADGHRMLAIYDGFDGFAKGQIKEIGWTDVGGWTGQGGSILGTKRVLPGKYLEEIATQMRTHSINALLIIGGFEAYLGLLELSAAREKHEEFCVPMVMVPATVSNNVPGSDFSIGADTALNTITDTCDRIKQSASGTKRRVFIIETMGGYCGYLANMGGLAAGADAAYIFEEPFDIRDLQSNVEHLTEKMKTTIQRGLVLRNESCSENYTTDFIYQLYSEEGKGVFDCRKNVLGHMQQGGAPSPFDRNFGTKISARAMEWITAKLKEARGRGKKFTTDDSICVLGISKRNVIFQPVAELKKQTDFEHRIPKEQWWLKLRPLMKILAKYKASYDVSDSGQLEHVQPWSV

Compound	Vmax,F6P (human PFKM; [1])	hF6P (Hill coefficient) (human PFKM; [1])	activation of PFKM (human PFKM)	activation of PFKP (human PFKP)	inhibition of recombinant NE (recombinant NE)	activation-induced reduction in PFK1 activity (PFK1)	effect on PFK1 activity in resting neutrophils (PFK1; resting neutrophils)
O=C(CO)[C@@H](O)[C@H](O)[C@H](O)COP(=O)(O)O [F6P, fructose 6-phosphate]	19.14 ± 0.74 micromoles FBP per minute per milligram PFK1	4.62 ± 1.38					
COc1ccccc1-c1cc2n(n1)Cc1ccc(NC(C)=O)cc1OC2 [LDC7559, reference compound]			failed to activate	failed to activate	neither LDC7559 nor NA-11 inhibited recombinant NE	prevented	
CC(=O)Nc1ccc2c(c1)OCc1cc(-c3ccccc3C#CCCCO)nn1C2 [NA-11]			failed to activate	failed to activate	neither LDC7559 nor NA-11 inhibited recombinant NE	prevented	minimal
